What was measured:
Assay in all cases: relative viability (nuclei count vs DMSO), 5 days (fraction); higher = more cells survive
A-427 = system: A-427
Method in brief: (§1)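 Five library-drug doses in √10 steps were combined with a fixed anchor-drug dose, or a single drug was given alone, by pin tool to lung cancer cell lines in 1536-well plates the day after seeding. Nuclei were stained and counted after 5 days. Relative viability is the nuclei count in treated wells over that in vehicle wells, taken as the median of duplicate plates.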

ABC-1 = system: ABC-1
Method in brief: as §1

BEN = system: BEN
Method in brief: as §1

CAL-12T = system: CAL-12T
Method in brief: as §1

HARA = system: HARA
Method in brief: as §1

LCLC-103H = system: LCLC-103H
Method in brief: as §1

LOU-NH91 = system: LOU-NH91
Method in brief: as §1

NCI-H1651 = system: NCI-H1651
Method in brief: as §1

NCI-H1666 = system: NCI-H1666
Method in brief: as §1

NCI-H1734 = system: NCI-H1734
Method in brief: as §1

NCI-H1944 = system: NCI-H1944
Method in brief: as §1

NCI-H1975 = system: NCI-H1975
Method in brief: as §1

NCI-H2085 = system: NCI-H2085
Method in brief: as §1

NCI-H2126 = system: NCI-H2126
Method in brief: as §1

NCI-H460 = system: NCI-H460
Method in brief: as §1

NCI-H520 = system: NCI-H520
Method in brief: as §1

NCI-H596 = system: NCI-H596
Method in brief: as §1

NCI-H647 = system: NCI-H647
Method in brief: as §1

NCI-H661 = system: NCI-H661
Method in brief: as §1

NCI-H727 = system: NCI-H727
Method in brief: as §1

NCI-H838 = system: NCI-H838
Method in brief: as §1

RERF-LC-KJ = system: RERF-LC-KJ
Method in brief: as §1

CCNC(=O)c1noc(-c2cc(C(C)C)c(O)cc2O)c1-c1ccc(CN2CCOCC2)cc1 [Luminespib] + Cc1nc(NC(=O)N2CCC[C@H]2C(N)=O)sc1-c1ccnc(C(C)(C)C(F)(F)F)c1 [Alpelisib] (partner 2 µM) gave a relative viability (A-427; first compound 0.002 µM) of 1.02, a relative viability (A-427; first compound 0.006325 µM) of 1.07 and a relative viability (A-427; first compound 0.02 µM) of 0.697. The relative viability (A-427; first compound 0.06325 µM) was 1.08, the relative viability (A-427; first compound 0.2 µM) was 1.09 and the relative viability (ABC-1; first compound 0.002 µM) was 0.976. The relative viability (ABC-1; first compound 0.006325 µM) was 0.95, the relative viability (ABC-1; first compound 0.02 µM) was 1.15 and the relative viability (ABC-1; first compound 0.06325 µM) was 0.392. It also gave a relative viability (ABC-1; first compound 0.2 µM) of 0.3, a relative viability (BEN; first compound 0.002 µM) of 1.1 and a relative viability (BEN; first compound 0.006325 µM) of 0.964. The relative viability (BEN; first compound 0.02 µM) was 0.393, the relative viability (BEN; first compound 0.06325 µM) was 0.709 and the relative viability (BEN; first compound 0.2 µM) was 0.224. It also gave a relative viability (CAL-12T; first compound 0.002 µM) of 1.21, a relative viability (CAL-12T; first compound 0.006325 µM) of 1.25 and a relative viability (CAL-12T; first compound 0.02 µM) of 1.02. The relative viability (CAL-12T; first compound 0.06325 µM) was 0.192, the relative viability (CAL-12T; first compound 0.2 µM) was 0.0844 and the relative viability (HARA; first compound 0.002 µM) was 0.835. The relative viability (HARA; first compound 0.006325 µM) was 0.676, the relative viability (HARA; first compound 0.02 µM) was 0.85 and the relative viability (HARA; first compound 0.06325 µM) was 0.759. The relative viability (HARA; first compound 0.2 µM) was 0.103, the relative viability (LCLC-103H; first compound 0.002 µM) was 0.969 and the relative viability (LCLC-103H; first compound 0.006325 µM) was 1.01. The relative viability (LCLC-103H; first compound 0.02 µM) was 0.85, the relative viability (LCLC-103H; first compound 0.06325 µM) was 0.928 and the relative viability (LCLC-103H; first compound 0.2 µM) was 1. It also gave a relative viability (LOU-NH91; first compound 0.002 µM) of 0.717, a relative viability (LOU-NH91; first compound 0.006325 µM) of 0.646 and a relative viability (LOU-NH91; first compound 0.02 µM) of 0.543. The relative viability (LOU-NH91; first compound 0.06325 µM) was 0.43, the relative viability (LOU-NH91; first compound 0.2 µM) was 0.381 and the relative viability (NCI-H1651; first compound 0.002 µM) was 0.899. The relative viability (NCI-H1651; first compound 0.006325 µM) was 0.854, the relative viability (NCI-H1651; first compound 0.02 µM) was 0.881 and the relative viability (NCI-H1651; first compound 0.06325 µM) was 0.42. The relative viability (NCI-H1651; first compound 0.2 µM) was 0.262, the relative viability (NCI-H1666; first compound 0.002 µM) was 1 and the relative viability (NCI-H1666; first compound 0.006325 µM) was 1.01. It also gave a relative viability (NCI-H1666; first compound 0.02 µM) of 0.985, a relative viability (NCI-H1666; first compound 0.06325 µM) of 1.01 and a relative viability (NCI-H1666; first compound 0.2 µM) of 0.795. The relative viability (NCI-H1734; first compound 0.002 µM) was 0.708, the relative viability (NCI-H1734; first compound 0.006325 µM) was 0.736 and the relative viability (NCI-H1734; first compound 0.02 µM) was 0.541. For the same compound, the relative viability (NCI-H1734; first compound 0.06325 µM) was 0.213, the relative viability (NCI-H1734; first compound 0.2 µM) was 0.158 and the relative viability (NCI-H1944; first compound 0.002 µM) was 0.861. The relative viability (NCI-H1944; first compound 0.006325 µM) was 0.826, the relative viability (NCI-H1944; first compound 0.02 µM) was 0.539 and the relative viability (NCI-H1944; first compound 0.06325 µM) was 0.755. It also gave a relative viability (NCI-H1944; first compound 0.2 µM) of 0.781, a relative viability (NCI-H1975; first compound 0.002 µM) of 0.667 and a relative viability (NCI-H1975; first compound 0.006325 µM) of 0.512. For the same compound, the relative viability (NCI-H1975; first compound 0.02 µM) was 0.233, the relative viability (NCI-H1975; first compound 0.06325 µM) was 0.137 and the relative viability (NCI-H1975; first compound 0.2 µM) was 0.126. For the same compound, the relative viability (NCI-H2085; first compound 0.002 µM) was 0.967, the relative viability (NCI-H2085; first compound 0.006325 µM) was 0.989 and the relative viability (NCI-H2085; first compound 0.02 µM) was 0.937. The relative viability (NCI-H2085; first compound 0.06325 µM) was 0.542, the relative viability (NCI-H2085; first compound 0.2 µM) was 0.397 and the relative viability (NCI-H2126; first compound 0.002 µM) was 0.739. The relative viability (NCI-H2126; first compound 0.006325 µM) was 0.727, the relative viability (NCI-H2126; first compound 0.02 µM) was 0.538 and the relative viability (NCI-H2126; first compound 0.06325 µM) was 0.748. For the same compound, the relative viability (NCI-H2126; first compound 0.2 µM) was 0.838, the relative viability (NCI-H460; first compound 0.002 µM) was 0.508 and the relative viability (NCI-H460; first compound 0.006325 µM) was 0.447. For the same compound, the relative viability (NCI-H460; first compound 0.02 µM) was 0.0191, the relative viability (NCI-H460; first compound 0.06325 µM) was 0.0086 and the relative viability (NCI-H460; first compound 0.2 µM) was 0.0122. The relative viability (NCI-H520; first compound 0.002 µM) was 0.916, the relative viability (NCI-H520; first compound 0.006325 µM) was 0.875 and the relative viability (NCI-H520; first compound 0.02 µM) was 1.01. The relative viability (NCI-H520; first compound 0.06325 µM) was 0.131, the relative viability (NCI-H520; first compound 0.2 µM) was 0.15 and the relative viability (NCI-H596; first compound 0.002 µM) was 0.517. The relative viability (NCI-H596; first compound 0.006325 µM) was 0.45, the relative viability (NCI-H596; first compound 0.06325 µM) was 0.44 and the relative viability (NCI-H596; first compound 0.2 µM) was 0.464. The relative viability (NCI-H647; first compound 0.002 µM) was 1.25, the relative viability (NCI-H647; first compound 0.006325 µM) was 1.12 and the relative viability (NCI-H647; first compound 0.02 µM) was 1.03. The relative viability (NCI-H647; first compound 0.06325 µM) was 0.103, the relative viability (NCI-H647; first compound 0.2 µM) was 0.0917 and the relative viability (NCI-H661; first compound 0.002 µM) was 0.628. For the same compound, the relative viability (NCI-H661; first compound 0.006325 µM) was 0.608, the relative viability (NCI-H661; first compound 0.02 µM) was 0.48 and the relative viability (NCI-H661; first compound 0.06325 µM) was 0.322. It also gave a relative viability (NCI-H661; first compound 0.2 µM) of 0.184, a relative viability (NCI-H727; first compound 0.002 µM) of 0.553 and a relative viability (NCI-H727; first compound 0.006325 µM) of 0.584. The relative viability (NCI-H727; first compound 0.02 µM) was 0.504, the relative viability (NCI-H727; first compound 0.06325 µM) was 0.234 and the relative viability (NCI-H727; first compound 0.2 µM) was 0.228. The relative viability (NCI-H838; first compound 0.002 µM) was 1.03, the relative viability (NCI-H838; first compound 0.006325 µM) was 0.927 and the relative viability (NCI-H838; first compound 0.02 µM) was 0.589. For the same compound, the relative viability (NCI-H838; first compound 0.06325 µM) was 0.168, the relative viability (NCI-H838; first compound 0.2 µM) was 0.153 and the relative viability (RERF-LC-KJ; first compound 0.002 µM) was 0.813. It also gave a relative viability (RERF-LC-KJ; first compound 0.006325 µM) of 0.894, a relative viability (RERF-LC-KJ; first compound 0.02 µM) of 0.51 and a relative viability (RERF-LC-KJ; first compound 0.06325 µM) of 0.541. For the same compound, the relative viability (RERF-LC-KJ; first compound 0.2 µM) was 0.242.
